Measurements as given in patent US10913781B2, “Pepducin design and use” (Tufts Medical Center, Inc., priority 2011, dated 2021).
Peptide text beside a SMILES is read from it. * marks the point of attachment. Palmitoyl = CCCCCCCCCCCCCCCC(=O)*

Assays:
Type in all cases: cell-based
[1] = biological target: T1, PAR1 (Homo sapiens, UniProt P25116); test: ERK1/2 phosphorylation in A549 cells (thrombin or […]), Western blot; set-up: endogenous in cells; host or cells: A549, HOP62, H1299, H522, H226, HOP92 lung carcinoma lines; conditions: A549 cells; pepducin 0.1-3 μM
T1 sequence (P25116 22-425): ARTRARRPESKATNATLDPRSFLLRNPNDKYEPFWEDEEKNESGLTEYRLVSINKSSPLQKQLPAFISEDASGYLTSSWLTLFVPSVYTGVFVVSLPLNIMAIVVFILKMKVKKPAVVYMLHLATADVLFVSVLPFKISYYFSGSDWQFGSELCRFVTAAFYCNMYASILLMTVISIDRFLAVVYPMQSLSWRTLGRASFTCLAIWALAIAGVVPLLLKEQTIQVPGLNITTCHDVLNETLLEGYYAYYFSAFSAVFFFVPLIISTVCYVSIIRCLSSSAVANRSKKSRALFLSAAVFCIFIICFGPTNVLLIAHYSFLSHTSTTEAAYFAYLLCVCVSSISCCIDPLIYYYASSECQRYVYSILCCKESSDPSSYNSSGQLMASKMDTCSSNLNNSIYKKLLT
Description: FIG. 9 illustrates that differential inhibition of PAR1-ERK activation by i3- and i1-derived PAR1 pepducins. (A-C): Western blots of lysates from A549 cells untreated, or treated with thrombin, SLIGKV (SEQ ID NO:29), or AYPGKF (SEQ ID NO:5). Indicated samples were pretreated with various concentrations (0.1 to 3 μmol/L) of P1pal-7, P1pal-10S, or P1pal-i1-11 before stimulation and immunoblotted with anti-phospho-ERK. (D-F): Quantification of the Western blots in (A-C) were conducted by densitometry and results are expressed relative to maximum (fold max) phosphorylation of pERK.
(B): A549 cells stimulated with 10 μM […] over 2 h. A549 cells pretreated with 0.1 μM P1pal-7 and stimulated with 10 μM […] (SEQ ID NO:30) for 5 min. Total ERK was used as a loading control.
Last, there has been a great deal of interest in understanding the mechanism of PAR1-mediated activation of MAP kinase cascade and PAR1-dependent cellular growth and differentiation, proliferation and gene transcription. […] The effects of i1 versus i3 PAR1 pepducins on ERK1/2 activation were examined in the A549 lung adenocarcinoma cell line. […] Inhibition experiments with a range of pepducin concentrations (0.1-3 μM) were conducted. […] The […] (SEQ ID NO:30) peptide gave a rapid and transient ERK1/2 phosphorylation signal that peaked at 5-15 min after stimulation. […] To determine the specificity of the PAR1 pepducin inhibitors, their effects on the closely related PAR2 and PAR4 receptors were also tested.

[2] = biological target: T1, PAR1; test: Migration of primary patient lung tumor cells; set-up: endogenous in cells; host or cells: A549, HOP62, H1299, H522, H226, HOP92 lung carcinoma lines
Description: FIG. 12 illustrates that PAR1 is a promigratory factor in lung cancer cells. (A-F): Inhibition of lung cancer migration in adenocarcinomas A549, HOP62, H1299 and H522, H226 squamous, and HOP92 large cell using PAR1 pepducins. Pepducins at […] (P1pal-7, P1pal-10S, P1pal-i1-11, or negative control P1pal-19EE) were added to the lower well. (G): Cell from primary lung tumors or nonmalignant control were pretreated with PAR1 pepducins and migration was determined (*P<0.05, **P<0.01).
Further experiments were carried out to determine whether migration of the primary carcinoma cell lines isolated from lung tumors could be inhibited by PAR1 pepducins (FIG. 12G). […] Likewise, the RWJ-56110 small-molecule antagonist of PAR1 (Andrade-Gordon, et al., Proc. Natl Acad Sci USA, 96 (1999), pp. 12257-12262) suppressed up to 55% of the migration of primary lung tumor cells toward NIH-3T3 conditioned media. The PAR1 antagonist pepducin P1pal-7 and P1pal-i1-11 had no effect on the low-expressing PAR1 cell line derived from benign lung tissue, which migrated poorly (FIG. 12G).

[3] = biological target: T1, PAR1; test: Calcium flux in SW620 cells stably transfected with PAR1, TFLLRN stimulus; conditions: 30 μM TFLLRN
Description: (§1) (A) PAR2 antagonist pepducins P2pal-18S and P2pal-14GQ inhibit calcium flux induced by PAR2 (SLIGRL) (SEQ ID NO:4) but not PAR1 (TFLLRN) (SEQ ID NO:2) agonists. SW620 cells were stably transfected with PAR1 and pretreated for 1 min with various concentrations of P2pal-18S or P2pal-14GQ and then stimulated with 30 μM PAR agonist. […] Cells were stimulated with 1 μM TFLLRN (SEQ ID NO:2), 1 μM SLIGRL (SEQ ID NO:4) or 100 μM AYPGKF (SEQ ID NO:5) and [^3H]-InsP formation measured over 30 min. (C) SW620 cells were treated with the indicated concentrations of P2pal-18S or P2pal-14GQ in the upper well of an 8-μm pore Boyden chamber and allowed to migrate for 18 h towards 10 μM of the PAR2 specific agonist SLIGRL in the lower chamber. The migration to RPMI/0.1% FBS represents random migration. (D) Migration of HEK cells transiently transfected with PAR2 (wild-type, WT), or PAR2-R36A/PAR2-RQ toward chemotactic gradients of 30 nM trypsin in the absence or presence of the indicated concentration of P2pal-18S for 18 h in a transwell apparatus ([…]). Data (n=2-4) are mean±SEM. *, P<0.05 and **, P<0.005.

[4] = biological target: T1, PAR1; test: [3H]-InsP formation in COS7 cells transfected with PAR1; set-up: expressed in transfected cells; host or cells: COS7; conditions: 1 μM TFLLRN, 30 min
Description: as §1

[5] = biological target: PAR2 (Mus musculus, UniProt P55086); test: Mouse neutrophil chemotaxis to trypsin; conditions: 30 nM trypsin
Description: (A) Human neutrophils (n=4 normal volunteers) were analyzed for surface expression of human PAR1, PAR2, and PAR4 by flow cytometry with PAR-specific antibodies. […] Chemotaxis index is the ratio of directed versus random migration over 30 min through a 5-μm pore filter.
The ability of some pepducin embodiments of the invention to antagonize PAR2-dependent activity of human neutrophils was tested. Neutrophils were isolated from the peripheral blood of healthy human volunteers and found to express high levels of surface PAR2 and PAR4 and lower apparent levels of PAR1 by flow cytometry (FIG. 3A). […] As human PAR2 shares 85% identity with mouse PAR2 and the mouse i3 loop retains all of the critical pharmacophores identified in the human PAR2 i3 loop, cross-species inhibition with mouse cells was tested.

Sequence of PAR2 (P55086 26-399): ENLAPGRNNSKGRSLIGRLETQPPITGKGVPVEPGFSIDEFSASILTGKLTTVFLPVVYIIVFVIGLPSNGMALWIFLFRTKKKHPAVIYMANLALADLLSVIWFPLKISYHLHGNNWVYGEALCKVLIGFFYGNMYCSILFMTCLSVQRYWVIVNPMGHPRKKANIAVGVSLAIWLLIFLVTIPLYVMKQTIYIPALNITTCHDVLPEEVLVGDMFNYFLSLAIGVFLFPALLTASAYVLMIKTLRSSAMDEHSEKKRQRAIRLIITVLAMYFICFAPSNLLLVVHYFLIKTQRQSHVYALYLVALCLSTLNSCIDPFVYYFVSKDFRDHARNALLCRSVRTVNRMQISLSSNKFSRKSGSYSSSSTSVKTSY

Structure (SMILES) | Effect on thrombin-induced ERK1/2 phosphorylation [1] | Effect on migration of low-expressing PAR1 cell line derived from benign lung tissue [2] | Inhibition of PAR1 calcium flux [3] | Inhibition of InsP signaling from PAR1 [4] | Inhibition of mouse neutrophil migration [5]
CCCCCCCCCCCCCCCC(=O)N[C@H](C(=O)N[C@@H](CC(C)C)C(=O)N[C@@H](CCCCN)C(=O)N[C@@H](CCSC)C(=O)N[C@@H](CCCCN)C(=O)N[C@H](C(=O)N[C@@H](CCCCN)C(=O)N[C@@H](CCCCN)C(=O)N1CCC[C@H]1C(=O)N[C@@H](C)C(=O)N[C@H](C(N)=O)C(C)C)C(C)C)[C@@H](C)CC [P1pal-i1-11] (Palmitoyl-ILKMKVKKPAV-NH2) | no effect | no effect | – | – | –
CCCCCCCCCCCCCCCC(=O)N[C@@H](CCCNC(=N)N)C(=O)N[C@@H](CO)C(=O)N[C@@H](CO)C(=O)N[C@@H](C)C(=O)N[C@@H](CCSC)C(=O)N[C@@H](CC(=O)O)C(=O)N[C@@H](CCC(=O)O)C(=O)N[C@@H](CC(N)=O)C(=O)N[C@@H](CO)C(=O)N[C@@H](CCC(=O)O)C(=O)N[C@@H](CCCCN)C(=O)N[C@@H](CCCCN)C(=O)N[C@@H](CCCNC(=N)N)C(=O)N[C@@H](CCCCN)C(=O)N[C@@H](CO)C(=O)N[C@@H](C)C(=O)N[C@H](C(=O)N[C@@H](CCCCN)C(N)=O)[C@@H](C)CC [P2pal-18S] | – | – | did not inhibit | do not inhibit | completely inhibited
